In the experiment the test system is MPanc-96 pancreatic tumor cells. Nature of the experiment: MPanc-96 pancreatic tumor xenograft in SCID mice. Format: in vivo. Here is the method: Mpanc-96 tumor cell injection—MPanc-96 pancreatic tumor cells were obtained from the ATCC(CCL-2380). On day 1, cells (5×10^6 cells/0.2 ml RPMI+FBS) were subcutaneously injected to the right flank, midway between the axillary and inguinal regions, of SCID mice. Prior to injection the cells were mixed by gentle vortexing. The cells were injected using a 25G needle, and the appearance of a bulge was observed. Following injection to animals, cells were counted in the leftover tubes with trypan blue, and re-cultured to test proliferation.
Compound 5 injections—Tumors were measured prior to inhibitor injection. […] The animals were injected intraperitoneally, daily, twice a day, starting 6 days after tumor cells injection, with 50 μl plain DMSO or 50 μl of Compound 5 in DMSO (8 mg/ml in DMSO).
Tumor growth—Tumor size was measured in two perpendicular dimensions, twice a week using digital calipers. Volumes were estimated using the formula (α^2×β)/2, where α is the shorter of the two dimensions, and β is the longer of the two dimensions.
Study termination—At the end of the study, 21 days following tumor cell injection, animals were euthanized by IP veterinary penthal injection. In case of severe weight loss (>20%), a tumor>1000 mm^3 or depression, an animal was euthanized prior to the study's termination day. Upon animal death prior to the end of the study, body weight and tumor size were measured.

The record followed here is US20050042213A1, “Methods and pharmaceutical compositions for modulating heparanase activation and uses thereof” (InSight Biopharmaceuticals Ltd., priority 2003, published 2005).

Take `O=C(O)CCCN1C(=O)C(=Cc2ccc(-c3ccc([N+](=O)[O-])cc3)o2)SC1=S` [Compound 5]: the “reduction of tumor volume” value reads like this: (10 mg/kg/day, compared with 40 mg/kg/day) “twice as much reduction”; (40 mg/kg/day, intraperitoneally, SCID mice) 35%. The “tumor growth in SCID mice” value (mouse, in vivo) is reported as “inhibited tumor growth in SCID mice efficiently”.
